Consider ten molecules from ChEMBL document CHEMBL3526124, “Optimized experimental design for the estimation of enzyme kinetic parameters: an experimental evaluation” (Drug Metab Dispos, 2012).

Series [1] relates to Liver microsome. As to the kind of experiment: Drug metabolism in human liver microsomes assessed as intrinsic clearance per mg protein by multiple depletion curves method. A general note: Microsomes from liver hold many membrane-bound enzymes, among them those of drug oxidation.
Series [2] can be described thus: Drug metabolism in human liver microsomes by multiple depletion curves method.
Series [3] is described as follows: Drug metabolism in human liver microsomes by optimal design approach.
The test system of series [4] is Liver microsome. Kind of series: Drug metabolism in human liver microsomes assessed as intrinsic clearance per mg protein by optimal design approach.
Series [5] deals with T1, Cytochrome P450 2D6 (Homo sapiens, UniProt P10635). As to the kind of experiment: Drug metabolism in assessed as human CYP2D6-mediated maximum rate of reaction per mg protein. The note with it: recombinant enzyme. In kind it is ADME.
In another series the target is CYP2D6 (Homo sapiens, UniProt P10635). Kind of series: Drug metabolism in assessed as human CYP2D6-mediated metabolism. The note with it: recombinant enzyme. In kind it is ADME.
In series [6] the target is T1, Cytochrome P450 2D6. Kind of series: Drug metabolism in assessed as human CYP2D6-mediated intrinsic clearance per mg protein. Conditions: recombinant enzyme. In kind it is ADME.
The next series concerns the target CYP2C9 (Homo sapiens, UniProt P11712). Kind of series: Drug metabolism in assessed as human CYP2C9-mediated metabolism. In kind it is ADME. Conditions: recombinant enzyme.
In series [7] the target is T2, Cytochrome P450 2C9 (Homo sapiens, UniProt P11712). Kind of series: Drug metabolism in assessed as human CYP2C9-mediated maximum rate of reaction per mg protein. In kind it is ADME. Conditions: recombinant enzyme.
The target of series [8] is T2, Cytochrome P450 2C9. As to the kind of experiment: Drug metabolism in assessed as human CYP2C9-mediated intrinsic clearance per mg protein. The format is ADME. Conditions: recombinant enzyme.
In series [9] the target is T3, Cytochrome P450 1A2 (Homo sapiens, UniProt P05177).
T3 sequence (P05177 whole entry): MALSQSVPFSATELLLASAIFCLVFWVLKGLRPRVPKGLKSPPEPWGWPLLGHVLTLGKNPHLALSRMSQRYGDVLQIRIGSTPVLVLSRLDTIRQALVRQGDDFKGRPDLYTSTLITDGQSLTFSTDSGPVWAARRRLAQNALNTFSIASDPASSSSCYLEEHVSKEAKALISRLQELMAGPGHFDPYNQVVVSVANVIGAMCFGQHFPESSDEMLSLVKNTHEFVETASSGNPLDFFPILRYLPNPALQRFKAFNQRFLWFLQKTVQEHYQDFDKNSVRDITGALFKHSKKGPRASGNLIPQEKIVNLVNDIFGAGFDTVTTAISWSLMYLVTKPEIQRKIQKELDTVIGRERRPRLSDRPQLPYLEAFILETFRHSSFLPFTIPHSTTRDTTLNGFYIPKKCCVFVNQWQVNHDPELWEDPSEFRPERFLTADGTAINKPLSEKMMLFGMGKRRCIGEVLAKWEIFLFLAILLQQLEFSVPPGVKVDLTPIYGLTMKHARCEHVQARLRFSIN
As to the kind of experiment: Drug metabolism in assessed as human CYP1A2-mediated maximum rate of reaction per mg protein. In kind it is ADME. The note with it: recombinant enzyme.

Series [10] addresses T3, Cytochrome P450 1A2. Kind of series: Drug metabolism in assessed as human CYP1A2-mediated intrinsic clearance per mg protein. The note with it: recombinant enzyme.
A short description of series [11]: Drug metabolism in assessed as human CYP3A-mediated maximum rate of reaction per mg protein. The note with it: recombinant enzyme. The format is ADME.
The next series relates to CYP3A. Kind of series: Drug metabolism in assessed as human CYP3A-mediated metabolism. In kind it is ADME. The note with it: recombinant enzyme.
Series [12] is described as follows: Drug metabolism in assessed as human CYP3A-mediated intrinsic clearance per mg protein. In kind it is ADME. Conditions: recombinant enzyme.
Substrate in series [13]: CN(C)CCCN1c2ccccc2CCc2ccccc21
As to the kind of experiment: not read.

Substrate in series [14]: CCc1cccc2cc(C(O)CNC(C)(C)C)oc12
Kind of series: not read.

T2 sequence (P11712 whole entry): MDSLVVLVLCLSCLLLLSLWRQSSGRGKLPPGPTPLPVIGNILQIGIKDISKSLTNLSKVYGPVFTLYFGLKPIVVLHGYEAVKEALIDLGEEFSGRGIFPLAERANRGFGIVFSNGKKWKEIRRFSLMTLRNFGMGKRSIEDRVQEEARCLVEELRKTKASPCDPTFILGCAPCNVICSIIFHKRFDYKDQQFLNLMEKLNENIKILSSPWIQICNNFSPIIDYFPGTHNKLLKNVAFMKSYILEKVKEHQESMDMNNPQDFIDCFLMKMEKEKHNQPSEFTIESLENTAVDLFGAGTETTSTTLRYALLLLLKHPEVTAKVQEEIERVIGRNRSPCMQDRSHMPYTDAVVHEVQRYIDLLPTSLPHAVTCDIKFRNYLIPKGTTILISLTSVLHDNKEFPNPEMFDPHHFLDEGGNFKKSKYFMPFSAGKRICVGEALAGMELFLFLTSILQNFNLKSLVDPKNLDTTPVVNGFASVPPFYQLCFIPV
CYP2C9, sequence (P11712 whole entry): as above

As for `COc1ccc2c(c1)[C@]13CCCC[C@@H]1[C@H](C2)N(C)CC3` [DEXTROMETHORPHAN], the CLH with Liver microsome [1] was found to be 84.1 µL/min/g; in the series on Liver microsome [4], 54.2 µL/min/g. The Km (commonly the substrate concentration at which the rate is half of its maximum) in series [2] (liver microsomes) came out at 7.16 µM; in [3] (liver microsomes), 6.32 µM; on CYP2D6, 1.4 µM. Also, at Cytochrome P450 2D6 [5], the Vmax – broadly, the top rate of the reaction or transport when substrate is in excess – turned out to be 140 pmol/min.
Regarding `CCc1cccc2cc(C(O)CNC(C)(C)C)oc12` (stereo not drawn) [BUFURALOL], the CLH in the series on Liver microsome [1] came to 31 µL/min/g; with Liver microsome [4], 32.3 µL/min/g. In addition, the values for the Km in series [2] (microsomes) and in series [3] (microsomes) were 11.7 µM and 12.8 µM, respectively. The clearance on Cytochrome P450 2D6 [6] stood at 3 µL/min/mg.
For the molecule `CCN(CC)Cc1cc(Nc2ccnc3cc(Cl)ccc23)ccc1O` [AMODIAQUINE], the CLH with Liver microsome [1] came to 829 µL/min/g; in the series with Liver microsome [4], 224 µL/min/g. Moreover, the Km turned out to be 3.33 µM in [2] (microsomes) and 5.17 µM in series [3] (microsomes).
As to `O=C(O)Cc1ccccc1Nc1c(Cl)cccc1Cl` [DICLOFENAC], the results for the Michaelis-Menten constant (Km) (on CYP2C9; in series [2] (microsomes); in series [3] (microsomes)) were 1.7 µM, 11.6 µM and 8.55 µM, respectively. The Vmax at Cytochrome P450 2C9 [7] is given as 710 pmol/min. For the same molecule, the clearance at Cytochrome P450 2C9 [8] was 130 µL/min/mg.
As for `COc1ccc([C@@H]2Sc3ccccc3N(CCN(C)C)C(=O)[C@@H]2OC(C)=O)cc1` [DILTIAZEM], the CLH stood at 47.6 µL/min/g with Liver microsome [1] and 75.4 µL/min/g in the series on Liver microsome [4]. In addition, the Michaelis-Menten constant (Km) was determined as 10 µM in series [2] (liver microsomes) and 9.8 µM in [3] (liver microsomes).
As to `CCOc1ccc(NC(C)=O)cc1` [PHENACETIN], the CLH in the series on Liver microsome [1] came out at 39.5 µL/min/g; in the series with Liver microsome [4], 50.4 µL/min/g. Also, the Km in [2] (liver microsomes) and in [3] (liver microsomes) was 22.6 µM in each case. Also, the Vmax at Cytochrome P450 1A2 [9] was 322 pmol/min. The CL on Cytochrome P450 1A2 [10] was 14.6 µL/min/g.
With `Cc1ncc2n1-c1ccc(Cl)cc1C(c1ccccc1F)=NC2` [MIDAZOLAM], the CLH in the series on Liver microsome [1] is 717 µL/min/g; with Liver microsome [4] it was 220 µL/min/g. The results for the Km (in [2] (microsomes); in [3] (microsomes); in the series with CYP3A) were 1.26 µM, 3.04 µM and 1.2 µM, respectively. For the same molecule, in series [11], the Vmax came out at 636 pmol/min. In series [12], the CL was found to be 159 µL/min/g.

B1: Cytochrome P450 1A2 (Homo sapiens) (protein)
chain: MALSQSVPFSATELLLASAIFCLVFWVLKGLRPRVPKGLKSPPEPWGWPLLGHVLTLGKNPHLALSRMSQRYGDVLQIRIGSTPVLVLSRLDTIRQALVRQGDDFKGRPDLYTSTLITDGQSLTFSTDSGPVWAARRRLAQNALNTFSIASDPASSSSCYLEEHVSKEAKALISRLQELMAGPGHFDPYNQVVVSVANVIGAMCFGQHFPESSDEMLSLVKNTHEFVETASSGNPLDFFPILRYLPNPALQRFKAFNQRFLWFLQKTVQEHYQDFDKNSVRDITGALFKHSKKGPRASGNLIPQEKIVNLVNDIFGAGFDTVTTAISWSLMYLVTKPEIQRKIQKELDTVIGRERRPRLSDRPQLPYLEAFILETFRHSSFLPFTIPHSTTRDTTLNGFYIPKKCCVFVNQWQVNHDPELWEDPSEFRPERFLTADGTAINKPLSEKMMLFGMGKRRCIGEVLAKWEIFLFLAILLQQLEFSVPPGVKVDLTPIYGLTMKHARCEHVQARLRFSIN
Turning to B1, in the series “not read [13]”, the Km turned out to be 5 µM and the Vmax was determined as 0.000117 µmol/min.

B2: Cytochrome P450 2D6 (Homo sapiens) (protein)
chain: MGLEALVPLAVIVAIFLLLVDLMHRRQRWAARYPPGPLPLPGLGNLLHVDFQNTPYCFDQLRRRFGDVFSLQLAWTPVVVLNGLAAVREALVTHGEDTADRPPVPITQILGFGPRSQGVFLARYGPAWREQRRFSVSTLRNLGLGKKSLEQWVTEEAACLCAAFANHSGRPFRPNGLLDKAVSNVIASLTCGRRFEYDDPRFLRLLDLAQEGLKEESGFLREVLNAVPVLLHIPALAGKVLRFQKAFLTQLDELLTEHRMTWDPAQPPRDLTEAFLAEMEKAKGNPESSFNDENLRIVVADLFSAGMVTTSTTLAWGLLLMILHPDVQRRVQQEIDDVIGQVRRPEMGDQAHMPYTTAVIHEVQRFGDIVPLGVTHMTSRDIEVQGFRIPKGTTLITNLSSVLKDEAVWEKPFRFHPEHFLDAQGHFVKPEAFLPFSAGRRACLGEPLARMELFLFFTSLLQHFSFSVPTGQPRPSHHGVFAFLVSPSPYELCAVPR
As to B2, in “not read [14]”, the Km came out at 8.2 µM and the Vmax was 7e-05 µmol/min.

B3: Cytochrome P450 2C19 (Homo sapiens) (protein)
chain: MDPFVVLVLCLSCLLLLSIWRQSSGRGKLPPGPTPLPVIGNILQIDIKDVSKSLTNLSKIYGPVFTLYFGLERMVVLHGYEVVKEALIDLGEEFSGRGHFPLAERANRGFGIVFSNGKRWKEIRRFSLMTLRNFGMGKRSIEDRVQEEARCLVEELRKTKASPCDPTFILGCAPCNVICSIIFQKRFDYKDQQFLNLMEKLNENIRIVSTPWIQICNNFPTIIDYFPGTHNKLLKNLAFMESDILEKVKEHQESMDINNPRDFIDCFLIKMEKEKQNQQSEFTIENLVITAADLLGAGTETTSTTLRYALLLLLKHPEVTAKVQEEIERVIGRNRSPCMQDRGHMPYTDAVVHEVQRYIDLIPTSLPHAVTCDVKFRNYLIPKGTTILTSLTSVLHDNKEFPNPEMFDPRHFLDEGGNFKKSNYFMPFSAGKRICVGEGLARMELFLFLTFILQNFNLKSLIDPKDLDTTPVVNGFASVPPFYQLCFIPV
With B3, in the series “not read [13]”, the Km is 5 µM and the Vmax was 0.000117 µmol/min.
